Data: patent publication US12077503B2, “Substituted cyclic amides and their use as herbicides” (FMC CORPORATION, priority 2015, dated 2024)

Legend:
Format in all cases: in vivo
[1] = test system: nutsedge, yellow (yellow nutsedge, Cyperus esculentus); assay: Test C preemergence; conditions: for Plant response rating, Nutsedge, Yellow: scale 0 to 100, 0 no effect, 100 complete control
In short: (§1)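 Preemergence application to seeds in loam/sand soil, or foliar (postemergence) application to plants 2–18 cm tall in peat moss/vermiculite medium; surfactant-containing non-phytotoxic solvent vehicle; greenhouse. Visual injury vs controls at 13–15 d; 0 = no effect, 100 = complete control.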

[2] = test system: wheat (winter wheat, Triticum aestivum); assay: Test C preemergence; conditions: for Plant response rating, Wheat: scale 0 to 100, 0 no effect, 100 complete control
In short: as §1

[3] = test system: morningglory (Ipomoea coccinea); assay: Test C preemergence; conditions: for Plant response rating, Morningglory: scale 0 to 100, 0 no effect, 100 complete control
In short: as §1

corn (Zea mays) = assay: Test C preemergence; conditions: for Plant response rating, Corn: scale 0 to 100, 0 no effect, 100 complete control
In short: as §1

[4] = test system: crabgrass, large (large crabgrass, Digitaria sanguinalis); assay: Test C preemergence; conditions: for Plant response rating, Crabgrass, Large: scale 0 to 100, 0 no effect, 100 complete control
In short: as §1

[5] = test system: blackgrass (Alopecurus myosuroides); assay: Test C preemergence; conditions: for Plant response rating, Blackgrass: scale 0 to 100, 0 no effect, 100 complete control
In short: as §1

[6] = test system: ragweed (common ragweed, Ambrosia elatior); assay: Test C preemergence; conditions: for Plant response rating, Ragweed: scale 0 to 100, 0 no effect, 100 complete control
In short: as §1

[7] = test system: johnsongrass (Sorghum halepense); assay: Test C preemergence; conditions: for Plant response rating, Johnsongrass: scale 0 to 100, 0 no effect, 100 complete control
In short: as §1

[8] = test system: waterhemp (common waterhemp, Amaranthus rudis); assay: Test C preemergence; conditions: for Plant response rating, Waterhemp: scale 0 to 100, 0 no effect, 100 complete control
In short: as §1

[9] = test system: velvetleaf (Abutilon theophrasti); assay: Test C preemergence; conditions: for Plant response rating, Velvetleaf: scale 0 to 100, 0 no effect, 100 complete control
In short: as §1

[10] = test system: lambsquarters (Chenopodium album); assay: Test C preemergence; conditions: for Plant response rating, Lambsquarters: scale 0 to 100, 0 no effect, 100 complete control
In short: as §1

[11] = test system: Galium (catchweed bedstraw, Galium aparine); assay: Test C preemergence; conditions: for Plant response rating, Galium: scale 0 to 100, 0 no effect, 100 complete control
In short: as §1

[12] = test system: ryegrass, Italian (Italian ryegrass, Lolium multiflorum); assay: Test C preemergence; conditions: for Plant response rating, Ryegrass, Italian: scale 0 to 100, 0 no effect, 100 complete control
In short: as §1

[13] = test system: foxtail, giant (giant foxtail, Setaria faberii); assay: Test C preemergence; conditions: for Plant response rating, Foxtail, Giant: scale 0 to 100, 0 no effect, 100 complete control
In short: as §1

[14] = test system: oilseed rape (Brassica napus); assay: Test C preemergence; conditions: for Plant response rating, Oilseed Rape: scale 0 to 100, 0 no effect, 100 complete control
In short: as §1

[15] = test system: pigweed (Amaranthus retroflexus); assay: Test C preemergence; conditions: for Plant response rating, Pigweed: scale 0 to 100, 0 no effect, 100 complete control
In short: as §1

[16] = test system: barnyardgrass (Echinochloa crus-galli); assay: Test C preemergence; conditions: for Plant response rating, Barnyardgrass: scale 0 to 100, 0 no effect, 100 complete control
In short: as §1

rice (Oryza sativa) = assay: Test C flooded paddy test; conditions: Flood, 0 is no effect, 100 is complete control
In short: (§2)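 Rice, small-flower umbrella sedge, ducksalad and barnyardgrass at the 2-leaf stage were flooded to 3 cm, and compound was applied into the paddy water. After 13 to 15 d in a greenhouse, plants were rated visually against controls on a 0 (no effect) to 100 (complete control) scale.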

[17] = test system: ducksalad (Heteranthera limosa); assay: Test C flooded paddy test; conditions: Flood, 0 is no effect, 100 is complete control
In short: as §2

[18] = 31 g ai/ha, 0 is no effect, 100 is complete control

CN1CC(c2cccc(C(F)(F)F)c2)C(C(=O)Nc2ccccc2S(C)(=O)=O)C1=O (stereo not shown) [Compound 637]
Plant response rating (scale of 0 to 100), Nutsedge, Yellow [1, 18]: 0 | Plant response rating, Nutsedge, Yellow ([1]; 62 g ai/ha): 85 | Plant response rating, Nutsedge, Yellow ([1]; 125 g ai/ha): 0 | Plant response rating, Nutsedge, Yellow ([1]; 250 g ai/ha): 65 | Plant response rating (scale of 0 to 100), Wheat [2, 18]: 60 | Plant response rating, Wheat ([2]; 62 g ai/ha): 50 | Plant response rating, Wheat ([2]; 125 g ai/ha): 90 | Plant response rating, Wheat ([2]; 250 g ai/ha): 90 | Plant response rating (scale of 0 to 100), Morningglory [3, 18]: 10 | Plant response rating, Morningglory ([3]; 62 g ai/ha): 35 | Plant response rating, Morningglory ([3]; 125 g ai/ha): 40 | Plant response rating, Morningglory ([3]; 250 g ai/ha): 45 | Plant response rating (scale of 0 to 100), Corn (corn (Zea mays); [18]): 35 | Plant response rating, Corn (corn (Zea mays); 62 g ai/ha): 55 | Plant response rating, Corn (corn (Zea mays); 125 g ai/ha): 75 | Plant response rating, Corn (corn (Zea mays); 250 g ai/ha): 85 | Plant response rating (scale of 0 to 100), Crabgrass, Large [4, 18]: 95 | Plant response rating, Crabgrass, Large ([4]; 62 g ai/ha): 100 | Plant response rating, Crabgrass, Large ([4]; 125 g ai/ha): 100 | Plant response rating, Crabgrass, Large ([4]; 250 g ai/ha): 100 | Plant response rating (scale of 0 to 100), Blackgrass [5, 18]: 70 | Plant response rating, Blackgrass ([5]; 62 g ai/ha): 90 | Plant response rating, Blackgrass ([5]; 125 g ai/ha): 90 | Plant response rating, Blackgrass ([5]; 250 g ai/ha): 90 | Plant response rating (scale of 0 to 100), Ragweed [6, 18]: 55 | Plant response rating, Ragweed ([6]; 62 g ai/ha): 60 | Plant response rating, Ragweed ([6]; 125 g ai/ha): 75 | Plant response rating, Ragweed ([6]; 250 g ai/ha): 75 | Plant response rating (scale of 0 to 100), Johnsongrass [7, 18]: 45 | Plant response rating, Johnsongrass ([7]; 62 g ai/ha): 70 | Plant response rating, Johnsongrass ([7]; 125 g ai/ha): 75 | Plant response rating, Johnsongrass ([7]; 250 g ai/ha): 85 | Plant response rating (scale of 0 to 100), Waterhemp [8, 18]: 75 | Plant response rating, Waterhemp ([8]; 62 g ai/ha): 80 | Plant response rating, Waterhemp ([8]; 125 g ai/ha): 85 | Plant response rating, Waterhemp ([8]; 250 g ai/ha): 90 | Plant response rating (scale of 0 to 100), Velvetleaf [9, 18]: 0 | Plant response rating, Velvetleaf ([9]; 62 g ai/ha): 10 | Plant response rating, Velvetleaf ([9]; 125 g ai/ha): 45 | Plant response rating, Velvetleaf ([9]; 250 g ai/ha): 65 | Plant response rating (scale of 0 to 100), Lambsquarters [10, 18]: 25 | Plant response rating, Lambsquarters ([10]; 62 g ai/ha): 55 | Plant response rating, Lambsquarters ([10]; 125 g ai/ha): 55 | Plant response rating, Lambsquarters ([10]; 250 g ai/ha): 70 | Plant response rating (scale of 0 to 100), Galium [11, 18]: 0 | Plant response rating, Galium ([11]; 62 g ai/ha): 80 | Plant response rating, Galium ([11]; 125 g ai/ha): 80 | Plant response rating, Galium ([11]; 250 g ai/ha): 85 | Plant response rating (scale of 0 to 100), Ryegrass, Italian [12, 18]: 55 | Plant response rating, Ryegrass, Italian ([12]; 62 g ai/ha): 30 | Plant response rating, Ryegrass, Italian ([12]; 125 g ai/ha): 30 | Plant response rating, Ryegrass, Italian ([12]; 250 g ai/ha): 35 | Plant response rating (scale of 0 to 100), Foxtail, Giant [13, 18]: 90 | Plant response rating, Foxtail, Giant ([13]; 62 g ai/ha): 90 | Plant response rating, Foxtail, Giant ([13]; 125 g ai/ha): 95 | Plant response rating, Foxtail, Giant ([13]; 250 g ai/ha): 95 | Plant response rating (scale of 0 to 100), Oilseed Rape [14, 18]: 10 | Plant response rating, Oilseed Rape ([14]; 62 g ai/ha): 80 | Plant response rating, Oilseed Rape ([14]; 125 g ai/ha): 85 | Plant response rating, Oilseed Rape ([14]; 250 g ai/ha): 85 | Plant response rating (scale of 0 to 100), Pigweed [15, 18]: 70 | Plant response rating, Pigweed ([15]; 62 g ai/ha): 80 | Plant response rating, Pigweed ([15]; 125 g ai/ha): 85 | Plant response rating, Pigweed ([15]; 250 g ai/ha): 85 | Plant response rating (scale of 0 to 100), Barnyardgrass [16, 18]: 90 | Plant response rating, Barnyardgrass ([16]; 62 g ai/ha): 90 | Plant response rating, Barnyardgrass ([16]; 125 g ai/ha): 95 | Plant response rating, Barnyardgrass ([16]; 250 g ai/ha): 95 | Plant response rating (scale of 0 to 100), Rice (rice (Oryza sativa); 31 g ai/ha): 15 | Plant response rating (scale of 0 to 100), Rice (rice (Oryza sativa); 62 g ai/ha): 15 | Plant response rating (scale of 0 to 100), Rice (rice (Oryza sativa); 125 g ai/ha): 15 | Plant response rating (scale of 0 to 100), Rice (rice (Oryza sativa); 250 g ai/ha): 45 | Plant response rating (scale of 0 to 100), Ducksalad ([17]; 31 g ai/ha): 30 | Plant response rating (scale of 0 to 100), Ducksalad ([17]; 62 g ai/ha): 45 | Plant response rating (scale of 0 to 100), Ducksalad ([17]; 125 g ai/ha): 70 | Plant response rating (scale of 0 to 100), Ducksalad ([17]; 250 g ai/ha): 90
